ChEMBL document CHEMBL1201862, “PubChem BioAssay data set” (2004)
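Step 1: Grow cells in 96-well plates. Step 2: Expose to compound for 48 hours at 5 concentrations. Step 3: Interpolate endpoints linearly; if unreached, use highest concentration. The concentration for 50% growth inhibition is given as GI50.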 Activity calls are given as the source filed them. No stated cut-off is given here; in the data, active = GI50 up to about 1.1 µM and inactive = higher.

Assays:
Assay in all cases: NCI tumour cell line growth inhibition, 48 h
[1] = test system: MDA-MB-435
[2] = test system: Malme-3M
[3] = test system: UACC-257
[4] = test system: SK-MEL-5
[5] = test system: SF-295
[6] = test system: HL-60
[7] = test system: CCRF-CEM
[8] = test system: SK-OV-3
[9] = test system: OVCAR-8
[10] = test system: EKVX
[11] = test system: DU-145
[12] = test system: RXF 393
[13] = test system: LOX IMVI
[14] = test system: NCI-H23
[15] = test system: SNB-19
[16] = test system: U-251
[17] = test system: MDA-N
[18] = test system: OVCAR-4
[19] = test system: A498
[20] = test system: SR

SMILES | GI50 [1] | GI50 [2] | GI50 [3] | GI50 [4] | GI50 [5] | GI50 [6] | GI50 [7] | GI50 [8] | GI50 [9] | GI50 [10] | GI50 [11] | GI50 [12] | GI50 [13] | GI50 [14] | GI50 [15] | GI50 [16] | GI50 [17] | GI50 [18] | GI50 [19] | GI50 [20]
CCOc1cc(C=O)c2c(ccc3ccc(OC)c(OC)c32)c1OC | 70.6 µM (inactive) | 55.7 µM (inactive) | 59.3 µM (inactive) | 52.4 µM (inactive) | 43.8 µM (inactive) | 24.4 µM (inactive) | 28.2 µM (inactive) | > 100 µM (inactive) | 50 µM (inactive) | 7.1 µM (inactive) | > 100 µM (inactive) | > 100 µM (inactive) | 32.4 µM (inactive) | 64 µM (inactive) | > 100 µM (inactive) | 88.9 µM (inactive) | 57 µM (inactive) | 51.1 µM (inactive) |  | 
CCC(=O)/C(=C\I)c1ccccc1 | 3.36 µM (inactive) | 1.67 µM (inactive) | 3.55 µM (inactive) |  | 18.5 µM (inactive) | 0.995 µM (active) | 2.74 µM (inactive) | 16.6 µM (inactive) | 2 µM (inactive) | 19.2 µM (inactive) | 7.19 µM (inactive) | 1.52 µM (inactive) | 1.27 µM (inactive) | 3.71 µM (inactive) | 15.3 µM (inactive) | 2.23 µM (inactive) | 2.85 µM (inactive) |  | 18.1 µM (inactive) | 
Oc1ccc(O)c(Sc2nnc(CCCCCCCCc3nnc(Sc4cc(O)ccc4O)o3)o2)c1 | 18.2 µM (inactive) | 57.3 µM (inactive) | > 100 µM (inactive) | > 100 µM (inactive) | > 100 µM (inactive) |  |  | > 100 µM (inactive) |  | > 100 µM (inactive) | > 100 µM (inactive) |  |  | > 100 µM (inactive) | > 100 µM (inactive) | 71.6 µM (inactive) | 17.3 µM (inactive) | 33.1 µM (inactive) | > 100 µM (inactive) | 
CCOc1ccc(N/C(=C(/C(Cl)=C(/Cl)NC(C)(C)C)[N+](=O)[O-])n2nnc3ccccc32)cc1 | 18.2 µM (inactive) | 15.8 µM (inactive) | 53.7 µM (inactive) |  | 28.1 µM (inactive) |  | 12.7 µM (inactive) | 59.8 µM (inactive) | 16.6 µM (inactive) | 39 µM (inactive) |  | 20.1 µM (inactive) |  | 22.6 µM (inactive) | 47.6 µM (inactive) | 19 µM (inactive) |  | 25.6 µM (inactive) | 91.6 µM (inactive) | 
COC12C=CC(CC1)C1C(=O)c3c(C)c(C)n(C)c3C(=O)C12 (stereo unspecified) | 83.2 µM (inactive) | > 100 µM (inactive) | 35.6 µM (inactive) | 19.6 µM (inactive) | > 100 µM (inactive) |  | > 100 µM (inactive) | > 100 µM (inactive) | > 100 µM (inactive) | > 100 µM (inactive) | > 100 µM (inactive) | > 100 µM (inactive) | > 100 µM (inactive) | 99.5 µM (inactive) | > 100 µM (inactive) | > 100 µM (inactive) |  |  | > 100 µM (inactive) | 27 µM (inactive)
Cc1cccc2c1nc1n2C(=O)c2ccccc2-1 |  | > 100 µM (inactive) | > 100 µM (inactive) | > 100 µM (inactive) | > 100 µM (inactive) | > 100 µM (inactive) | > 100 µM (inactive) | > 100 µM (inactive) | > 100 µM (inactive) | > 100 µM (inactive) | > 100 µM (inactive) | > 100 µM (inactive) |  | > 100 µM (inactive) | > 100 µM (inactive) | > 100 µM (inactive) | > 100 µM (inactive) | > 100 µM (inactive) |  | > 100 µM (inactive)
N#CC1(Cc2ccc(N)cc2)c2ccccc2C=CN1C(=O)c1ccccc1 (stereo unspecified) |  | 24.4 µM (inactive) | 39.7 µM (inactive) | 21.8 µM (inactive) | 33 µM (inactive) | 15.8 µM (inactive) | 29 µM (inactive) | 66.4 µM (inactive) | 40.6 µM (inactive) | 38.7 µM (inactive) |  | 27.4 µM (inactive) | 51.6 µM (inactive) | 47.1 µM (inactive) | 41.8 µM (inactive) | 46.7 µM (inactive) |  |  | 40 µM (inactive) | 24.8 µM (inactive)
ClCCN(CC#CCCCC#CCN(CCCl)CCCl)CCCl |  | 14.2 µM (inactive) | 13.8 µM (inactive) | 11.3 µM (inactive) | 11.6 µM (inactive) | 1.26 µM (inactive) | 2.3 µM (inactive) | 9.31 µM (inactive) | 11 µM (inactive) | 22.8 µM (inactive) |  | 15.5 µM (inactive) | 5.86 µM (inactive) | 6.85 µM (inactive) | 13.6 µM (inactive) | 8.43 µM (inactive) |  | 20.6 µM (inactive) | 12.3 µM (inactive) | 2.03 µM (inactive)
N#Cc1cc([N+](=O)[O-])ccc1NC(=O)C(=O)C(C(=O)c1ccc2ccccc2c1)C1OCc2ccccc21 (stereo unspecified) |  | 8.41 µM (inactive) | 9.33 µM (inactive) | 9.06 µM (inactive) | 3.15 µM (inactive) | 12.2 µM (inactive) | 3.92 µM (inactive) | 24.8 µM (inactive) | 5.43 µM (inactive) | 16.4 µM (inactive) |  | 3.73 µM (inactive) | 7.19 µM (inactive) | 4.5 µM (inactive) | 6.9 µM (inactive) | 4 µM (inactive) |  | > 25.5 µM (inactive) | 5.56 µM (inactive) | 2.88 µM (inactive)
Nc1cc2nc(-c3ccccc3)cn2cn1 | > 100 µM (inactive) | 20.2 µM (inactive) |  | 35.5 µM (inactive) | > 100 µM (inactive) | > 100 µM (inactive) | 86.5 µM (inactive) | > 100 µM (inactive) | > 100 µM (inactive) | 29.3 µM (inactive) | > 100 µM (inactive) | 50.9 µM (inactive) | 84.5 µM (inactive) | > 100 µM (inactive) | > 100 µM (inactive) | > 100 µM (inactive) | > 100 µM (inactive) | > 100 µM (inactive) | 27.9 µM (inactive) | 
COc1ccc(NC(=O)C/C(C)=N\N=C(N)N)c([N+](=O)[O-])c1 |  | > 100 µM (inactive) | > 100 µM (inactive) | > 100 µM (inactive) | > 100 µM (inactive) | 88.5 µM (inactive) | > 100 µM (inactive) | > 100 µM (inactive) | > 100 µM (inactive) | > 100 µM (inactive) |  | > 100 µM (inactive) | 33.9 µM (inactive) | > 100 µM (inactive) | > 100 µM (inactive) | > 100 µM (inactive) |  | > 100 µM (inactive) | > 100 µM (inactive) | 23.3 µM (inactive)
NC(=O)OCc1c(-c2ccccc2)nn(-c2ccccc2)c1COC(N)=O | > 100 µM (inactive) | > 100 µM (inactive) | > 100 µM (inactive) | > 100 µM (inactive) | > 100 µM (inactive) |  |  |  | > 100 µM (inactive) |  | > 100 µM (inactive) | > 100 µM (inactive) |  | > 100 µM (inactive) | > 100 µM (inactive) | > 100 µM (inactive) | > 100 µM (inactive) | > 100 µM (inactive) |  | 
CN(CCc1ccc(Br)cc1)CCN1CCCCC1 | 26.4 µM (inactive) | 22.8 µM (inactive) | 36.3 µM (inactive) | 14.9 µM (inactive) | 25.1 µM (inactive) |  | 16.4 µM (inactive) | 55.8 µM (inactive) | 31.4 µM (inactive) | > 100 µM (inactive) | 99.5 µM (inactive) | 36.4 µM (inactive) | 28.6 µM (inactive) | 31.9 µM (inactive) | > 100 µM (inactive) | 39.5 µM (inactive) | 22.6 µM (inactive) | 54.8 µM (inactive) | 21 µM (inactive) | 
CCOC(=O)/C(C(=O)Nc1cccc(C(F)(F)F)c1)=C(/N)N1CCOCC1 | > 100 µM (inactive) | > 100 µM (inactive) | > 100 µM (inactive) |  | > 100 µM (inactive) | > 100 µM (inactive) | > 100 µM (inactive) | > 100 µM (inactive) | > 100 µM (inactive) | > 100 µM (inactive) | > 100 µM (inactive) | > 100 µM (inactive) | > 100 µM (inactive) | > 100 µM (inactive) | > 100 µM (inactive) | > 100 µM (inactive) | > 100 µM (inactive) | > 100 µM (inactive) | > 100 µM (inactive) | 
COc1cc(-c2nc(SC)nc3c2CCc2ccccc2-3)cc(OC)c1OC | 95.1 µM (inactive) |  | 90.8 µM (inactive) | 37 µM (inactive) | 91 µM (inactive) | > 100 µM (inactive) | > 100 µM (inactive) | > 100 µM (inactive) | 50.6 µM (inactive) | 29.1 µM (inactive) | 79.8 µM (inactive) | 36 µM (inactive) | 91.8 µM (inactive) | > 100 µM (inactive) | > 100 µM (inactive) | 93.1 µM (inactive) |  | 65 µM (inactive) | > 100 µM (inactive) | 
N#CSCc1cccc(Nc2cc(=O)[nH]c(=O)[nH]2)c1 | > 100 µM (inactive) | 31.8 µM (inactive) | 85.1 µM (inactive) | 26.9 µM (inactive) | > 100 µM (inactive) |  |  | > 100 µM (inactive) | 72.1 µM (inactive) | > 100 µM (inactive) |  | > 100 µM (inactive) | 92.3 µM (inactive) | > 100 µM (inactive) | > 100 µM (inactive) | 94.4 µM (inactive) | 52.4 µM (inactive) | 31.3 µM (inactive) | > 100 µM (inactive) | 
CCOC(=O)c1c(NS(=O)(=O)c2ccc(C)cc2)sc2c1CCCC2 |  |  | 35 µM (inactive) | 31.8 µM (inactive) | 28 µM (inactive) | 42.7 µM (inactive) | 12.1 µM (inactive) |  | 35.7 µM (inactive) | 32.6 µM (inactive) | 33.6 µM (inactive) |  |  | 18.1 µM (inactive) | 35.1 µM (inactive) |  | 42.7 µM (inactive) |  | 36.1 µM (inactive) | 
